Test results as given in patent US20250325520A1, “Methods for Targeting Cancer Cells Using Amino Acids” (University of Denver, priority 2024, published 2025).

Key:
[1] = pH change of the media caused by amino acid addition; assay type: physicochemical; conditions: culture media, FIG. 6
[2] = system: PANC-1 and MIA PaCa-2 (malignant pancreas epithelial) cells; test: Cell viability / cytotoxicity (CCK-8) on PDAC tumor cells; assay type: cell-based, human; conditions: for cytotoxic efficacy on tumor cells / viability dose response of tumor cells: individual amino acid, 48 hours, FIGS. 7, 8
Description: (§1) Malignant pancreatic cell lines (PANC-1 and MIA PaCa-2) and nonmalignant human pancreas cell line (HPNE) were obtained from the American Type Culture Collection (Manassas, Virginia). The cells were cultured in DMEM medium (HYCLONE™ sera, available from GE Healthcare Life Sciences) with HPNE cells having 0.1 ng/ml EGF (Novus Biologicals, USA) included. All cultures were supplemented with 10% fetal bovine serum (FBS, Life Technology, Thermo Fisher Scientific Inc.), penicillin (1 U), and streptomycin (1 μg/ml). All cells were maintained in a humidified incubator with 5% CO2 at 37° C. All cell lines were cultured in triplicate under the same conditions, then harvested to collect independent exosome samples. Cells were seeded in 96-well plates at a density of 10^4 cells/well. After 24 hours, culture medium with increasing concentrations of treatment was added to the treatment group for 48 hours. Cell viability was accessed by Cell Counting Kit-8 (CCK-8; Dojindo Laboratories) following the manufacturer's instructions. Briefly, a mixture of 10 μl of CCK-8 and 190 μl media was added into each well and the cells were incubated for another 1 hour. The absorbance of each well was measured at 450 nm using a microplate reader. Each experiment was repeated six times.

[3] = system: PANC-1 subcutaneous pancreatic tumor; test: Subcutaneous PANC-1 xenograft in nude mice; assay type: in vivo; conditions: AA oral gavage daily, GEM intraperitoneal twice a week, n=5, FIG. 32
Description: In particular, the xenograft model was established with six to eight-week-old male nude mice (J:NU-Foxn1nu) purchased from The Jackson Laboratory (Bar Harbor, ME). […] The pancreatic cancer tumor was injected subcutaneously into the left flank of each mouse with 4×10^6 PANC-1 cells suspended in 100 μl of serum-free media with 50% […] ® matrix to establish a subcutaneous pancreatic tumor.
Mice were observed three times daily for the first seven days and tumor xenograft was confirmed by the presence of the tumor. […] Tumor volume and mice weight were measured every fifth day. Tumor volume was established by measuring length and width; the volume formula used was the modified ellipsoid volume formula (½ length×width 2).
For AA and control groups, treatment was given by oral gavage. AA treatment was made from a combination of histidine (44 mg/ml) and isoleucine (22 mg/ml) dissolved in PBS. For the two groups with AA, oral gavage treatment was administered daily with 200 μl AA treatment using a 20 ga polypropylene feeding tube attached to a syringe. For the control group, oral gavage treatment was administered using the same method except with 200 μl PBS. For the GEM and AA+GEM groups, GEM was given by intraperitoneal injection. GEM groups were injected twice a week with 200 μl of GEM (15 mg/ml) dissolved in PBS. All treatments were administered for sixty days. […]

[4] = system: hTert-HPNE (nonmalignant pancreas epithelial) cells; test: Cell viability / cytotoxicity (CCK-8) on nontumor cells; assay type: cell-based, human; conditions: individual amino acid, 48 hours, FIGS. 7, 8
Description: as §1

Row | pH change caused by amino acid addition [1] | Compound | time-dependent cytotoxicity to tumor cells ([2]; AA compared with GEM, FIG. 13) | antitumor efficacy (tumor volume) [3] | cytotoxic efficacy on tumor cells [2] | viability dose response of tumor cells [2] | cell viability of nontumor cells [4]
1 | significant pH change | N[C@@H](CS)C(=O)O [cysteine, reference compound] |  |  |  |  | 
2 |  | Nc1ccn([C@@H]2O[C@H](CO)[C@@H](O)C2(F)F)c(=O)n1 [GEM, gemcitabine, reference compound] | faster efficacy and is more tumoricidal effective | showed antitumor efficacy |  |  | 
3 | trivial impact | N[C@@H](Cc1c[nH]cn1)C(=O)O [histidine] |  |  | selective cytotoxic efficacy | monotonic dose response | no significant difference in cell viability
4 | trivial impact | CC[C@H](C)[C@H](N)C(=O)O [isoleucine] |  |  | selective cytotoxic efficacy | monotonic dose response | no significant difference in cell viability

Row | Compound | pH change caused by amino acid addition [1] | time-dependent cytotoxicity to tumor cells ([2]; AA compared with GEM, FIG. 13) | antitumor efficacy (tumor volume) [3] | cytotoxic efficacy on tumor cells [2] | viability dose response of tumor cells [2] | cell viability of nontumor cells [4]
5 | N=C(N)NCCC[C@H](N)C(=O)O [arginine, reference compound] | significant pH change |  |  |  |  | 
